Patent US11896593B2, “Sulfamate derivative compounds for use in treating or alleviating a psychiatric disorder” (Bio-Pharm Solutions Co., Ltd., priority 2020, dated 2024)

Assays:
Format in all cases: in vivo
[1] = system: ICR male mice; test: Open field test; conditions: 60 minutes before testing
Protocol: This test is based on anxiety behaviors of rodents in the central area of an open field. When a mouse stayed in the central area for a longer period of time, it was deemed that there were more anti-stress, anti-depressant and anti-anxiety effects. ICR male mice (30 g to 35 g) were purchased from Orient Bio Korea Co. (Korea) and allowed to acclimatize for 1 week before being tested in a controlled animal facility (temperature 22±2° C., humidity 55±5%). When treatment began, the weight of the animals was 35±5% g. The test compound for oral administration was dissolved in 30% PEG400 and administered at a dose per body weight of 10 mL/kg 60 minutes before testing. The test compound for intraperitoneal administration was dissolved in 20% Tween80 and administered at a dose per body weight of 10 mL/kg 60 minutes before testing. The control group was provided with a corresponding vehicle. The open field was measured and analyzed by OPTO-VARIMEX instrument (Columbus Instruments, USA). The mouse was placed in the center of the open field, and its behavior was measured for 10 minutes. The open field was divided into 16 equal parts, and the middle area was established as the central area. Locomotor activity was measured using a spontaneous momentum (distance moved in cm), and measurement of anxiety behavior was obtained using the time spent in the central area as an index. In the open field experiment, when the time during which the mouse stayed in the central area was longer, it was evaluated that the symptoms of anxiety were alleviated, and when the time was shorter, the mouse was evaluated to have symptoms of anxiety (Reference; Prut L, Belzung C. 2003. The open field as a paradigm to measure the effects of drugs on anxiety-like behaviors: a review. Eur J Pharmacol. February 28; 463(1-3):3-33.).

[2] = system: ICR male mice; test: Light dark choice test; conditions: mouse, 60 minutes before testing
Protocol: The light-dark choice test is a model for anxiety-like behavior. This test is based on innate aversion of rodents to brightly lit areas and their voluntary exploration behaviors for light stress factors, that is, new environments and light. ICR male mice (30 g to 35 g) were purchased from Orient Bio Korea Co. (Korea) and allowed to acclimatize for 1 week before being tested in a controlled animal facility (temperature 22±2° C., humidity 55±5%). When treatment began, the weight of the animals was 35±5% g. The test compound for oral administration was dissolved in 30% PEG400 and administered at a dose per body weight of 10 mL/kg 60 minutes before testing. The test compound for intraperitoneal administration was dissolved in 20% Tween80 and administered at a dose per body weight of 10 mL/kg 60 minutes before testing. The control group was provided with a corresponding vehicle. An acryl box (45 cm×27 cm×27 cm) was composed of 2 chambers (white color: ⅔ of the box, black color: ⅓ of the box) connected by an opening (7.5 cm×7.5 cm) located at the bottom surface of the center of a partition wall. Each mouse was placed in the white part of the box and allowed to roam freely for a 5-minute session. At the end of the session, mice were returned to their habitat cage, and the experimental box was cleanly wiped with a 70% alcohol solution. All experiments were videotaped. After testing, all video recordings were analyzed. The obtained results are shown in Table 5 below (Reference; Bourin, M., Hascoet, M. 2003. The mouse light/dark box test. European Journal of Pharmacology, 463, 55-65. Bouwknecht, J A., Paylor, R. 2002. Behavioral and physiological mouse assays for anxiety: a survey in nine mouse strains. Behavioural Brain Research, 136, 489-501.).

[3] = system: rats that gave birth, chronic administration of corticosterone; test: PPD (chronic CORT induced PPD model), forced swim test; conditions: postpartum depression rat, 30 mg/kg, intraperitoneally 15 minutes before testing
Protocol: In order to confirm the effect on postpartum depression in rats, the forced swim test was conducted after chronic administration of corticosterone, a depression-causing substance, to rats that gave birth. The forced swim test causes an immobile state by forcing an animal to swim in a confined space. It reflects a state of despair giving up evading such a circumstance. Rats on the 15th day of pregnancy were purchased from Koatech (Korea) and allowed to acclimatize for 1 week before being tested in a controlled animal facility (temperature 22±2° C., humidity 55±5%). […] In the recorded videos, the time during which the animal placed its head on the water and remained still without movement was measured based on the remaining 4 minutes excluding the first 2 minutes. It was evaluated that the lower the value of the immobile posture time, the greater the anti-depressant action (Reference; S. Brummelte et al. Chronic corticosterone during pregnancy and affects maternal care, cell proliferation and depressive-like behavior in the dam. Hormones and Behavior 58 (2010) 769˜779, Porsolt R D, Le Pichon M, Jalfre M. 1997. Depression: a new animal model sensitive to anti-depressant treatments. Nature. April 21; 266(5604):730˜2.).
The result was shown as the standard error of measurement (SEM) of mean value±mean value. Behavioral data were analyzed by one-way ANOVA. […]

With `CC1(C)O[C@@H](COS(N)(=O)=O)[C@H](c2ccccc2Cl)O1` [Example 2, ((4S,5S)-5-(2-chlorophenyl)-2,2-dimethyl-1,3-dioxolan-4-yl)methyl sulfamate] the “Spontaneous momentum(cm)/10 minutes, Treatment” value ([1]; intraperitoneal, 10 mg/kg) was 5038.2 ± 455.9 cm/10 minutes, the “Time of staying in central area (sec.)/10 minutes, Treatment” value (shortened to “Time of staying in central area”) ([1]; intraperitoneal, 10 mg/kg) was 31.6 ± 2.7 sec./10 minutes and the “Spontaneous momentum(cm)/10 minutes, Treatment” value ([1]; intraperitoneal, 30 mg/kg) was 4249.4 ± 402.4 cm/10 minutes. The “Time of staying in central area” value ([1]; intraperitoneal, 30 mg/kg) was 35.6 ± 3.1 sec./10 minutes, the “Spontaneous momentum(cm)/10 minutes, Treatment” value ([1]; oral, 10 mg/kg) was 4997.3 ± 491.6 cm/10 minutes and the “Time of staying in central area” value ([1]; oral, 10 mg/kg) was 36.6 ± 4.6 sec./10 minutes. The “Spontaneous momentum(cm)/10 minutes, Treatment” value ([1]; oral, 30 mg/kg) was 5033.5 ± 233.8 cm/10 minutes, the “Time of staying in central area” value ([1]; oral, 30 mg/kg) was 44.7 ± 3.5 sec./10 minutes and the “White box duration time (sec.)/5 minutes, Treatment” value (“White box duration time” for short) ([2]; intraperitoneal, 10 mg/kg) was 189.0 ± 10.8 sec./5 minutes. The “White box duration time” value ([2]; intraperitoneal, 30 mg/kg) was 208.1 ± 13.2 sec./5 minutes, the “White box duration time” value ([2]; intraperitoneal, 40 mg/kg) was 219.2 ± 13.3 sec./5 minutes and the “White box duration time” value ([2]; oral, 10 mg/kg) was 136.4 ± 4.2 sec./5 minutes. The “White box duration time” value ([2]; oral, 30 mg/kg) was 140.0 ± 12.3 sec./5 minutes, the “White box duration time” value ([2]; oral, 40 mg/kg) was 193.1 ± 8.7 sec./5 minutes and the “Immobile posture time (sec.)/4 minutes, Treatment” value [3] was 5.07 sec./4 minutes.
